Results taken from patent US10865188B2, “Dibenzo azepine compounds and their use in the treatment of otic diseases and disorders” (Pipeline Therapeutics, Inc., priority 2015, dated 2020).

System: HES1
Experiment: Human neural stem cell assay, Hes1 gene expression (real-time PCR)
Type: cell-based
Settings: human neural stem cells, 7 point CRC, read-out: hNSC HES1 IC50
Protocol: Neural stem cells (NSC) were derived from embryonic stem cells using a published protocol (Yuan et al., Mar. 2, 2011, PLoS ONE, 6(3):e17540). Cells were sorted and characterized at passage 3 and were expanded. Cells were then frozen at passage 5. Cells were maintained in NSC media (DMEM/F12, N2 (1×), B27(1×) (Invitrogen), and Pen/Strep (1×) (Life Technologies) with 20 ng/ml bFGF (BD Bioscience/Corning)). On day 1, cells were plated in 96 well plates that have been previously coated with poly-ornithin and laminin, 60,000 cells/well in 100 μl of media. On day 2, spent media was removed, and 180 μl of fresh media was added to the cells. Later that same day (day 2), cells were treated with 20 μl of NSC media containing test compounds (7 point CRC). On day 3, spent media was removed and 140 μl of RLT/bME was added to the cells. RNA was extracted using the QiaCube (Qiagen®, Germantown, Md., USA) using the total RNA extraction+DNAse protocol. RNA was then reverse-transcribed to cDNA using iScript (Bio-Rad, Hercules, Calif., USA). cDNA was then used for real-time PCR analysis using iTaq Sybergreen (BioRad). Expression of Atoh1, Hes5, Hes1, Myosin7a genes was evaluated using CFX96 or CFX384 (Bio-Rad). HPRT1 was used as a reference gene. Analysis was done using Microsoft® Excel® and CBIS (ChemInnovation Software, Inc., San Diego, Calif., USA). […]

IC50: 0.242 µM
SMILES: C[C@H](OC(=O)NCC(F)(F)C(F)(F)F)C(=O)N[C@@H]1C(=O)Nc2ccccc2-c2ccccc21 [Compound I, (2,2,3,3,3-pentafluoropropyl)-carbamic acid (S)-1-((S)-6-oxo-6,7-dihydro-5H-dibenzo[b,d]azepin-7-ylcarbamoyl) ethyl ester]
